Results as given in ChEMBL document CHEMBL3885881, “DrugMatrix”.

Species: Rattus norvegicus
Test: DrugMatrix - Regimen: Daily Repeat
Format: toxicity, organism-based, Sprague-Dawley
Design: regimen Daily Repeat, gender Male, age 6-8 weeks
Conditions: in vivo, po, route oral GAVAGE, […]; for ABSOLUTE BASOPHIL / ABSOLUTE EOSINOPHIL / ABSOLUTE LYMPHOCYTE / ABSOLUTE MONOCYTE / ABSOLUTE SEGMENTED NEUTROPHIL / BASOPHIL / EOSINOPHIL / ERYTHROCYTE COUNT / HEMATOCRIT / HEMOGLOBIN / LEUKOCYTE COUNT / LYMPHOCYTE / MEAN CORPUSCULAR HEMOGLOBIN / MEAN CORPUSCULAR HEMOGLOBIN CONCENTRATION / MEAN CORPUSCULAR VOLUME / MONOCYTE / NEUTROPHIL / NUCLEATED RED BLOOD CELLS / PLATELET COUNT: tissue Blood; for ALANINE AMINOTRANSFERASE / ALBUMIN / ALKALINE PHOSPHATASE / ASPARTATE AMINOTRANSFERASE / BLOOD UREA NITROGEN / CARBON DIOXIDE / CHLORIDE / CHOLESTEROL / CREATINE PHOSPHOKINASE / CREATININE / GLUCOSE / LACTATE DEHYDROGENASE / LIPASE / PHOSPHORUS / POTASSIUM / SODIUM / TOTAL BILIRUBIN / TOTAL PROTEIN / URIC ACID: tissue Plasma
[1] = 3 mg/kg, 120 h, dose level Low, time 5 day
[2] = 300 mg/kg, 72 h, dose level High, time 3 day
[3] = 300 mg/kg, 120 h, dose level High, time 5 day

CC#C[C@]1(O)CC[C@H]2[C@@H]3CCC4=CC(=O)CCC4=C3[C@@H](c3ccc(N(C)C)cc3)C[C@@]21C [MIFEPRISTONE]
ABSOLUTE BASOPHIL [1]: 0 CELLS/uL | ABSOLUTE EOSINOPHIL [1]: 0 CELLS/uL | ABSOLUTE LYMPHOCYTE [1]: 7739.67 CELLS/uL | ABSOLUTE MONOCYTE [1]: 116.67 CELLS/uL | ABSOLUTE SEGMENTED NEUTROPHIL [1]: 1310.33 CELLS/uL | BASOPHIL [1]: 0% | EOSINOPHIL [1]: 0% | ERYTHROCYTE COUNT [1]: 4.91 x10E6/uL | HEMATOCRIT [1]: 31.8% | HEMOGLOBIN [1]: 12.53 G/DL | LEUKOCYTE COUNT [1]: 9.17 x10E3/uL | LYMPHOCYTE [1]: 84.33% | MEAN CORPUSCULAR HEMOGLOBIN [1]: 25.53 pg | MEAN CORPUSCULAR HEMOGLOBIN CONCENTRATION [1]: 39.43 G/DL | MEAN CORPUSCULAR VOLUME [1]: 64.83 fL | MONOCYTE [1]: 1.33% | NEUTROPHIL [1]: 14.33% | NUCLEATED RED BLOOD CELLS [1]: 0 /100WBC | PLATELET COUNT [1]: 1194.67 x10E3/uL | ALANINE AMINOTRANSFERASE [1]: 61.67 u/L | ALBUMIN [1]: 4.13 G/DL | ALKALINE PHOSPHATASE [1]: 340.33 u/L | ASPARTATE AMINOTRANSFERASE [1]: 84 u/L | BLOOD UREA NITROGEN [1]: 13.33 mg/dL | CARBON DIOXIDE [1]: 30.33 mmol/L | CHLORIDE [1]: 97.67 MEQ/L | CHOLESTEROL [1]: 64.67 mg/dL | CREATINE PHOSPHOKINASE [1]: 193.33 u/L | CREATININE [1]: 0.14 mg/dL | GLUCOSE [1]: 154.33 mg/dL | LACTATE DEHYDROGENASE [1]: 87 u/L | LIPASE [1]: 9.33 u/L | PHOSPHORUS [1]: 10.8 mg/dL | POTASSIUM [1]: 5.65 MEQ/L | SODIUM [1]: 143.37 MEQ/L | TOTAL BILIRUBIN [1]: 0.13 mg/dL | TOTAL PROTEIN [1]: 5.9 G/DL | URIC ACID [1]: 0.73 mg/dL | ABSOLUTE BASOPHIL [2]: 0 CELLS/uL | ABSOLUTE EOSINOPHIL [2]: 0 CELLS/uL | ABSOLUTE LYMPHOCYTE [2]: 6590.67 CELLS/uL | ABSOLUTE MONOCYTE [2]: 75.33 CELLS/uL | ABSOLUTE SEGMENTED NEUTROPHIL [2]: 634 CELLS/uL | BASOPHIL [2]: 0% | EOSINOPHIL [2]: 0% | ERYTHROCYTE COUNT [2]: 5.5 x10E6/uL | HEMATOCRIT [2]: 33.8% | HEMOGLOBIN [2]: 13.33 G/DL | LEUKOCYTE COUNT [2]: 7.3 x10E3/uL | LYMPHOCYTE [2]: 90.67% | MEAN CORPUSCULAR HEMOGLOBIN [2]: 24.3 pg | MEAN CORPUSCULAR HEMOGLOBIN CONCENTRATION [2]: 39.47 G/DL | MEAN CORPUSCULAR VOLUME [2]: 61.57 fL | MONOCYTE [2]: 1% | NEUTROPHIL [2]: 8.33% | NUCLEATED RED BLOOD CELLS [2]: 0 /100WBC | PLATELET COUNT [2]: 1129.67 x10E3/uL | ALANINE AMINOTRANSFERASE [2]: 63 u/L | ALBUMIN [2]: 3.77 G/DL | ALKALINE PHOSPHATASE [2]: 417.67 u/L | ASPARTATE AMINOTRANSFERASE [2]: 107.67 u/L | BLOOD UREA NITROGEN [2]: 14.33 mg/dL | CARBON DIOXIDE [2]: 28 mmol/L | CHLORIDE [2]: 102.67 MEQ/L | CHOLESTEROL [2]: 54.33 mg/dL | CREATINE PHOSPHOKINASE [2]: 371.67 u/L | CREATININE [2]: 0.32 mg/dL | GLUCOSE [2]: 160.67 mg/dL | LACTATE DEHYDROGENASE [2]: 97.67 u/L | LIPASE [2]: 11 u/L | PHOSPHORUS [2]: 9.53 mg/dL | POTASSIUM [2]: 4.8 MEQ/L | SODIUM [2]: 144.33 MEQ/L | TOTAL BILIRUBIN [2]: 0.17 mg/dL | TOTAL PROTEIN [2]: 5.53 G/DL | URIC ACID [2]: 0.37 mg/dL | ABSOLUTE BASOPHIL [3]: 0 CELLS/uL | ABSOLUTE EOSINOPHIL [3]: 48.67 CELLS/uL | ABSOLUTE LYMPHOCYTE [3]: 8343 CELLS/uL | ABSOLUTE MONOCYTE [3]: 151.67 CELLS/uL | ABSOLUTE SEGMENTED NEUTROPHIL [3]: 790 CELLS/uL | BASOPHIL [3]: 0% | EOSINOPHIL [3]: 0.67% | ERYTHROCYTE COUNT [3]: 5.36 x10E6/uL | HEMATOCRIT [3]: 32.73% | HEMOGLOBIN [3]: 12.93 G/DL | LEUKOCYTE COUNT [3]: 9.33 x10E3/uL | LYMPHOCYTE [3]: 89% | MEAN CORPUSCULAR HEMOGLOBIN [3]: 24.17 pg | MEAN CORPUSCULAR HEMOGLOBIN CONCENTRATION [3]: 39.53 G/DL | MEAN CORPUSCULAR VOLUME [3]: 61.13 fL | MONOCYTE [3]: 1.67% | NEUTROPHIL [3]: 8.67% | NUCLEATED RED BLOOD CELLS [3]: 0 /100WBC | PLATELET COUNT [3]: 1290.33 x10E3/uL | ALANINE AMINOTRANSFERASE [3]: 84.33 u/L | ALBUMIN [3]: 3.8 G/DL | ALKALINE PHOSPHATASE [3]: 386 u/L | ASPARTATE AMINOTRANSFERASE [3]: 91 u/L | BLOOD UREA NITROGEN [3]: 15.33 mg/dL | CARBON DIOXIDE [3]: 30.33 mmol/L | CHLORIDE [3]: 97.67 MEQ/L | CHOLESTEROL [3]: 86 mg/dL | CREATINE PHOSPHOKINASE [3]: 250 u/L | CREATININE [3]: 0.3 mg/dL | GLUCOSE [3]: 148.33 mg/dL | LACTATE DEHYDROGENASE [3]: 74.67 u/L | LIPASE [3]: 25.67 u/L | PHOSPHORUS [3]: 8.03 mg/dL | POTASSIUM [3]: 5.82 MEQ/L | SODIUM [3]: 142.7 MEQ/L | TOTAL BILIRUBIN [3]: 0.1 mg/dL | TOTAL PROTEIN [3]: 6 G/DL | URIC ACID [3]: 0.3 mg/dL
